How the values were obtained:
[1] = test system: prfA gene of L. monocytogenes (real-time PCR); assay: inhibitory effects of detergents on real-time PCR; format: biochemical
Method: For experiments analysing the effects of food matrices and detergents contained in the matrix lysis buffer on real-time PCR, food matrices were mixed with equal amounts of ddH2O, stomachered for 3 minutes, diluted in a 10-fold dilution series (10^−1, 10^−2 and 10^−3) and 5 μl directly subjected to the real time PCR samples. An aliquot was cooked 15 min at 100° C. for comparison prior to subjection of 5 μl to real-time PCR. Detergents were diluted in 2-fold dilution series (0.4 M-0.05 M Urea and 0.8%-0.005% SDS) and 5 μl were subjected to the real-time PCR samples.
Real-time PCR was performed in an Mx3000p real-time PCR thermocycler (Stratagene, USA). The 25 μl volume contained 20 mM Tris-HCl, 50 mM KCl, 3.5 mM MgCl2. 500 nM of each primer, 250 nM of each probe, 200 μM (each) of dATP, dTTP, dGTP and dCTP, 1.5 U of Platinum Taq DNA polymerase (Invitrogen, Austria), 25 copies of the IAC and […]. Amplification following initial denaturation at 94° C. for 2 min was performed in 45 cycles, at each 94° C. for 15 s and 64° C. for 1 minute.

Gram negative bacteria = assay: recovery of Gram negative bacteria in matrix lysis; format: cell-based; conditions: as detergent of the lysis buffer
Method: Combinations of five different detergents (Tween 20®, Tween 80®, Triton X-100®; SDS, and Lutensol AO-7), three enzymes (Protease, alpha-amylase and cellulase) and a sucrose buffer (0.25 M sucrose, 1 mM EDTA and 0.05 M Tris, pH 7.6) were compared with respect of their ability to dissolve food matrices (salmon, chicken meat, diary products, ice cream, blood, starch rich foodstuffs, egg and milk) and their effect on the cellular appearance of the bacterial cells. All chemicals used (with the exception of SDS, Sigma-Aldrich, Germany; Lutensol AO-7, BASF, Netherland and Savinase, Novozymes, Denmark) were purchased at Merck (Germany). The matrix lysis protocol is described below.
Matrix lysis was generally performed as described in example 1. Processing meat, fish, chicken and blood or when Gram positive bacteria were targeted, buffer system I (8 M urea, 1% SDS, and 1×PBS) was used. Buffer system II (8 M urea, 1% Lutensol AO-7 and 1×PBS) was used if Gram negative bacteria were targeted and for all other foodstuffs used (Milk, diary products, ice cream, and egg).

L. monocytogenes [2] = assay: growth of L. monocytogenes after treatment with compounds of the matrix lysis protocol (Example 1); format: cell-based; conditions: incubated 2 h at 45 °C in the compound, then plated
Method: L. monocytogenes EGDe was used as a DNA quantification standard for real-time PCR and for artificial contamination of food samples. The bacteria were maintained at -80° C. using the MicroBank technology (Pro-Lab Diagnostics, Canada). Listeria were grown in tryptone soy broth with 0.6% ([…]; Oxoid, UK) at 37° C. over night. For artificial contamination of food and viability staining, one milliliter of the over night culture was transferred to one milliliter of fresh medium and incubated at 37° C. for three hours. Plate count method and tryptone soy agar plates supplemented with 0.6% (w/v) yeast extract (TSA-Y; Oxoid, UK) were used for quantification of the pure cultures of L. monocytogenes. The agar plates were incubated at 37° C. for 24 hours. For determination of the survival rate of L. monocytogenes treated with different chemical compounds of the matrix lysis buffer system, 100 μl of an overnight culture of L. monocytogenes was pelleted at 8,000×g for 5 min, resuspended in the chemical compound of choice, and incubated for 2 h at 45° C. and 300 rpm on an Eppendorf shaker (Eppendorf, Germany). Afterwards the bacterial cells were washed twice in 1×PBS at 5,000×g and resuspended in 120 μl 1×PBS. One-hundred μl of the suspension was plated on […] agar plates (Biokar, Beauvais, France). Incubation was performed 48 h at 37° C.

S. thyphimurium [3] = assay: BacLight viability staining after exposure to chemical compounds; format: cell-based
Method: (§1) For assessment of the survival rate of the bacteria treated with different chemical compounds of the matrix lysis buffer system, 100 μl of an overnight culture was pelleted at 8,000×g for 5 min, re-suspended in 1 ml of the chemical compound of choice, […] shaker (Eppendorf, Germany). The bacterial cells were then washed twice in 1×PBS at 5,000×g and re-suspended in 120 μl 1×PBS. One-hundred it of the suspension was plated onto TSB-Y agar plates (Oxoid). Incubation was performed for 48 h at 37° C. Additionally the Live/Dead® BacLight™ Bacterial Viability Kit (Molecular Probes, USA) was used to examine the condition of the bacteria after the chemical treatments.
(§2) Viability staining was performed using the Live/Dead® BacLight™ Bacterial Viability Kit (Molecular Probes) as prescribed by the manufacturer. Ten fields per filter were analysed, and two filters were prepared for each sample.

B. cereus [4] = assay: plate growth after exposure to chemical compounds; format: cell-based
Method: as §1

S. aureus [5] = assay: plate growth after exposure to chemical compounds; format: cell-based
Method: as §1

E. coli [6] = assay: plate growth after exposure to chemical compounds; format: cell-based
Method: as §1

L. monocytogenes [7] = assay: plate growth after exposure to chemical compounds; format: cell-based
Method: as §1

S. thyphimurium [8] = assay: plate growth after exposure to chemical compounds; format: cell-based
Method: as §1

B. cereus [9] = assay: BacLight viability staining after exposure to chemical compounds; format: cell-based; design: key: red: Red colour indicates dead cells; c.r.: Reduced cell count; green: Green colour indicates living cells
Method: as §1, §2

S. aureus [10] = assay: as above; format: cell-based; design: key: red: Red colour indicates dead cells; c.r.: Reduced cell count; green: Green colour indicates living cells
Method: as §1, §2

E. coli [11] = assay: as above; format: cell-based; design: key: red: Red colour indicates dead cells; c.r.: Reduced cell count; green: Green colour indicates living cells
Method: as §1, §2

L. monocytogenes [12] = assay: as above; format: cell-based; design: key: red: Red colour indicates dead cells; c.r.: Reduced cell count; green: Green colour indicates living cells
Method: as §1, §2

CCCCCCCCCCCCOS(=O)(=O)[O-].[Na+] [1% SDS, sodium dodecyl sulfate] was tested, and the “inhibitory effect on real-time PCR” value ([1]; SDS 0.8% to 0.005%, 15.5 and 1,550 copies/PCR) was “no amplification”, the “recovery of Gram negative bacteria” value (Gram negative bacteria) was “decreasing the recovery” and the “growth of L. monocytogenes on TSY agar after treatment” value (L. monocytogenes [2]) was “Complete inhibition of growth”.

With NC(N)=O [8 M Urea, urea] the “inhibitory effect on real-time PCR” value ([1]; urea 0.4 M and 0.2 M, 15.5 copies of the target) was “total inhibition”, the “inhibitory effect on real-time PCR” value ([1]; urea 0.4 M, 1,550 copies of the target) was “total inhibition” and the “S. thyphimurium BacLight” value (S. thyphimurium [3]; 37 °C) was “c.r.^b/red”. The “S. thyphimurium BacLight” value (S. thyphimurium [3]; 42 °C) was “c.r./red”, the “S. thyphimurium BacLight” value (S. thyphimurium [3]; 45 °C) was “c.r./red” and the “B. cereus Plate growth” value (B. cereus [4]; 37 °C) was “pos”. For the same compound, the “B. cereus Plate growth” value (B. cereus [4]; 42 °C) was “pos”, the “B. cereus Plate growth” value (B. cereus [4]; 45 °C) was “pos” and the “S. aureus Plate growth” value (S. aureus [5]; 37 °C) was “pos”. The “S. aureus Plate growth” value (S. aureus [5]; 42 °C) was “pos”, the “S. aureus Plate growth” value (S. aureus [5]; 45 °C) was “pos” and the “E. coli Plate growth” value (E. coli [6]; 37 °C) was “neg”. For the same compound, the “E. coli Plate growth” value (E. coli [6]; 42 °C) was “neg”, the “L. monocytogenes Plate growth” value (L. monocytogenes [7]; 37 °C) was “pos” and the “L. monocytogenes Plate growth” value (L. monocytogenes [7]; 42 °C) was “pos”. For the same compound, the “L. monocytogenes Plate growth” value (L. monocytogenes [7]; 45 °C) was “pos”, the “S. thyphimurium Plate growth” value (S. thyphimurium [8]; 37 °C) was “neg” and the “S. thyphimurium Plate growth” value (S. thyphimurium [8]; 42 °C) was “neg”. The “S. thyphimurium Plate growth” value (S. thyphimurium [8]; 45 °C) was “neg”, the “B. cereus BacLight” value (B. cereus [9]; 37 °C) was “green” and the “B. cereus BacLight” value (B. cereus [9]; 42 °C) was “green”. The “B. cereus BacLight” value (B. cereus [9]; 45 °C) was “green”, the “S. aureus BacLight” value (S. aureus [10]; 37 °C) was “green” and the “S. aureus BacLight” value (S. aureus [10]; 42 °C) was “green”. The “S. aureus BacLight” value (S. aureus [10]; 45 °C) was “green”, the “E. coli BacLight” value (E. coli [11]; 37 °C) was “red^a” and the “E. coli BacLight” value (E. coli [11]; 42 °C) was “c.r./red”. For the same compound, the “E. coli BacLight” value (E. coli [11]; 45 °C) was “c.r./red”, the “L. monocytogenes BacLight” value (L. monocytogenes [12]; 37 °C) was “green^c” and the “L. monocytogenes BacLight” value (L. monocytogenes [12]; 42 °C) was “green”. For the same compound, the “L. monocytogenes BacLight” value (L. monocytogenes [12]; 45 °C) was “green” and the “growth of L. monocytogenes on TSY agar after treatment” value (L. monocytogenes [2]) was “able to grow”.

— patent publication US9328326B2, “Method for isolating cells” (MERCK PATENT GMBH, priority 2006, dated 2016)
